A value given as a limit tells only on which side of the number the result lay.

In assay [1] the target is Histamine H4 receptor (Homo sapiens, UniProt Q9H3N8).
Assay [2] deals with Histamine H3 receptor (Homo sapiens, UniProt Q9Y5N1).
Histamine H3 receptor, sequence (Q9Y5N1 whole entry): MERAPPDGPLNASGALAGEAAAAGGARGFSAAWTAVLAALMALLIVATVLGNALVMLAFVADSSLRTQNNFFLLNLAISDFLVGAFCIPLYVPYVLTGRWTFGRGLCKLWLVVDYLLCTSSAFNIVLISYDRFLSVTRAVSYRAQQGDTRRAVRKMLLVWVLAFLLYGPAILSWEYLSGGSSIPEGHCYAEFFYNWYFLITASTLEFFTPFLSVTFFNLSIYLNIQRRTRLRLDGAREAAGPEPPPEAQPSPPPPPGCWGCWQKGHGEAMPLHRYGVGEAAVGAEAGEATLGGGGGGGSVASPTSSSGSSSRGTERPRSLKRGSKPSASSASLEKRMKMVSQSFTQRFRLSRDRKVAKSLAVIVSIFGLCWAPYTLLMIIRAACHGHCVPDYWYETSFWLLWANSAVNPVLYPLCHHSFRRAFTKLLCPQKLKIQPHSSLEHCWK

Histamine H4 receptor, sequence (Q9H3N8 whole entry): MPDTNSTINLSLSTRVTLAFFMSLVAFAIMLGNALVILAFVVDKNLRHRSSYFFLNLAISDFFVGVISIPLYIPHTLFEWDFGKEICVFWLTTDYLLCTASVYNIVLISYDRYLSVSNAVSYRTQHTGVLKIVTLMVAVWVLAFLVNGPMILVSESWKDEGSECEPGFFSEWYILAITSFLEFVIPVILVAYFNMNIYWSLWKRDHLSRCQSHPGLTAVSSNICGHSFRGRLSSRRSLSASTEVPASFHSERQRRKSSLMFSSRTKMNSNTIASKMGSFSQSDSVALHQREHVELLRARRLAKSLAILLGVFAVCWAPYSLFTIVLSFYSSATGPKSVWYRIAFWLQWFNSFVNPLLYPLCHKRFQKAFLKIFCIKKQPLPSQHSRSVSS

On to `N#Cc1ccc(OCCCN2CCCCC2)cc1` [UCL-2138], for which the Ki in assay [1] was over 10000 nM.

For the compound `Cc1[nH]cnc1CSCCNC(=N)NCCCc1c[nH]cn1` [2-[3-(1H-imidazol-5-yl)propyl]-1-(2-{[(5-methyl-1H-imidazol-4-yl)methyl]sulfanyl}ethyl)guanidine], the Ki was found to be 67 nM in assay [2] and 12.3 nM in assay [1].

`CN(C)CCCSC(=N)N` [[3-(carbamimidoylsulfanyl)propyl]dimethylamine] came in with a Ki in assay [2] of 825 nM.

Consider `NC(=NCc1ccc(Cl)cc1)SCCCc1cnc[nH]1` [VUF 9153], for which, in assay [1], the affinity, expressed as Ki, was 12.8 nM.

In the case of `CN/C([CH-][N+](=O)[O-])=[NH+]\CCSCc1ccc(CN(C)C)o1`, the Ki in assay [2] and in assay [1] was over 10000 nM in each case.

In the case of `CN1CCC(=C2c3ccccc3C=Cc3ccccc32)CC1` [5-(1-methylpiperidylidene-4)-5H-dibenzo(a,d)cyclopheptene], the inhibition constant (Ki) in assay [1] was over 10000 nM.

Regarding `CN/C(=N/CCSCc1nc[nH]c1C)NC#N`, the inhibitory constant (Ki) in assay [1] is over 10000 nM.

`CNCCc1c[nH]cn1` [N(alpha)-Methylhistamine]: the inhibitory constant (Ki) in assay [2] is 0.5 nM; in assay [1] it was 23 nM.

Turning to `N=C(N)SCCc1cnc[nH]1` [2-(3H-imidazol-4-yl)ethylsulfanylmethanimidamide], the figures for the Ki in assay [2] and in assay [1] were 0.3 nM and 2.7 nM, respectively.

`c1nc(CC2CCNCC2)c[nH]1` [4-(1H-imidazol-4-ylmethyl)piperidine]: affinity in assay [1] was put at a Ki of 9 nM.

For the compound `C[C@@H](N)Cc1c[nH]cn1`, the Ki in assay [1] came out at 146 nM. This Ki lies about 16-fold higher than the previous one.

Take `CNC(=S)NCCCCc1cnc[nH]1` [1-[4-(1H-imidazol-5-yl)butyl]-3-methylthiourea]: the inhibitory constant (Ki) in assay [2] came to 84 nM. That is a double-digit nanomolar value.

As usually defined, the Ki is the dissociation constant of the complex between target and ligand, obtained from inhibition or displacement. A low value points to higher affinity.

The record behind these values is BindingDB's records for doi:10.1124/mol.59.3.420 (The R. W. Johnson Pharmaceutical Research Institute, 2001).
